From ChEMBL document CHEMBL5727116, “Pyrazole compounds and methods of making and using same” (2019) come the findings set out here.

Each structure is given as a SMILES string.

For one assay, the target named is T1, Monoglyceride lipase (Mus musculus, UniProt O35678).
T1 sequence (O35678 whole entry): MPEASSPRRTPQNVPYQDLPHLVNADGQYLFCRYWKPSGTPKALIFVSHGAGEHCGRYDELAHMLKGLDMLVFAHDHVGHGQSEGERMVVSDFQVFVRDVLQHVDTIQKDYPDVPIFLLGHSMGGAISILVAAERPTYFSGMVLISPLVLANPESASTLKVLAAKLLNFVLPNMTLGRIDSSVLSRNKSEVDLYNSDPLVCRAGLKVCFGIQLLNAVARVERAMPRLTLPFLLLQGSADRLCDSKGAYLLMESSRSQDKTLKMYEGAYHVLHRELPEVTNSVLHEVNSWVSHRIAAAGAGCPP
Kind of assay: (§1) In Vitro Competitive Activity-Based Protein Profiling: Proteomes (mouse brain membrane fraction or cell lysates for mouse assays; human prefrontal cortex or cell membrane fractions for human assays) (50 μL, 1.0 mg/mL total protein concentration) were preincubated with varying concentrations of inhibitors at 37° C. After 30 min, FP—Rh or HT-01 (1.0 μL, 50 μM in DMSO) was added and the mixture was incubated for another 30 min at 37° C. Reactions were quenched with SDS loading buffer (15 μL-4×) and run on SDS-PAGE. Following gel imaging, serine hydrolase activity was determined by measuring fluorescent intensity of gel bands corresponding to MAGL and FAAH using ImageJ 1.43u software.Preparation of Mouse Brain Proteomes from Inhibitor Treated Mice.Inhibitors were administered to wild-type C57Bl/6J by oral gavage in a vehicle of polyethylene glycol. Each animal was sacrificed 4 h following administration and brain proteomes were prepared and analyzed according to previously established methods (See Niphakis, M. J., et al. (2011) ACS Chem. Neurosci. and Long, J. Z., et al. Nat. Chem. Biol. 5:37-44).

Assay [1] deals with T2, Fatty-acid amide hydrolase 1 (Mus musculus, UniProt O08914).
T2 sequence (O08914 whole entry): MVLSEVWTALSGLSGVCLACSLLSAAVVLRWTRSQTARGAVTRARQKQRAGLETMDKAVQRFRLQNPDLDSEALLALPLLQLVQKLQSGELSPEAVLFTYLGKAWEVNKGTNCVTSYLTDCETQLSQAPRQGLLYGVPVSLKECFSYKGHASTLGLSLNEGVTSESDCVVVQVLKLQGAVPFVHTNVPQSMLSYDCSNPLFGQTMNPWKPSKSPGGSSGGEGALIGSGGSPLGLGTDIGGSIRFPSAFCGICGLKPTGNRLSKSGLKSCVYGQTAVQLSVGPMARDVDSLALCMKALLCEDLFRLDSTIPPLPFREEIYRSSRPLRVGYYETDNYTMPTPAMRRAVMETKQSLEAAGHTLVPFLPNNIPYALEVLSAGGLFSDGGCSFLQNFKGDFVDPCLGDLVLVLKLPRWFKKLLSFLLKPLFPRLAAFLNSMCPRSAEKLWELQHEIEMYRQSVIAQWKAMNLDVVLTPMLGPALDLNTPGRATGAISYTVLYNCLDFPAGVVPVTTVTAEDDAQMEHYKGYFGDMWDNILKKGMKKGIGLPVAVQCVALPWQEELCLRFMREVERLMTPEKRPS
The assay is described as §1.

In the case of `CC(=O)N(C)c1cnn(C(=O)N2CCN(Cc3ccc(Cl)c(Cl)c3)CC2)c1`, on Monoglyceride lipase, the IC50 was less than 100 nM. Still for that read-out and setting: with `CC(=O)N(C)c1cnn(C(=O)N2CCN(Cc3ccc(C(F)(F)F)cc3)CC2)c1` the figure was less than 100 nM.

Take `CC(=O)N(C)c1cnn(C(=O)N2CC3CN(Cc4cc(Cl)cc(N5CCC6(CCOCC6)C5)c4)CC3C2)c1` (stereo not given): the IC50 (at Monoglyceride lipase; in assay [1]) was less than 100 nM in each case.

On to `CC(=O)N(C)c1cnn(C(=O)N2CC3CN(Cc4cccc(Oc5ccccn5)c4)CC3C2)c1` (stereo not given), for which, in assay [1], the IC50 was less than 100 nM.
